The values that follow come from ChEMBL document CHEMBL3714716, “Modulators of the relaxin receptor 1” (2015).

The test system of series [1] is Plasma. Description: AUMClast in C57/BL6 mouse plasma at 3 mg/kg, iv administered as single dose. To be noted: in vivo. It is filed as ADME, organism-based.
A short description of series [2]: Initial plasma concentration in C57/BL6 mouse plasma at 3 mg/kg, iv administered as single dose. It is filed as ADME, organism-based.
In series [3] the test system is Plasma. Nature of the series: AUMClast in C57/BL6 mouse plasma at 30 mg/kg, po administered as single dose. It is filed as ADME, organism-based. To be noted: in vivo.
The nature of series [4]: Tmax in C57/BL6 mouse plasma at 30 mg/kg, po administered as single dose. It is filed as ADME, organism-based.
The nature of series [5]: Cmax in C57/BL6 mouse plasma at 30 mg/kg, po administered as single dose. Also noted: dose 30 mg/kg, route oral. It is filed as ADME, organism-based.
Series [6] deals with Heart. Description: AUMClast in C57/BL6 mouse heart at 3 mg/kg, iv administered as single dose. To be noted: in vivo. The class given is ADME, organism-based.
The test system of series [7] is Heart. Nature of the series: AUMClast in C57/BL6 mouse heart at 30 mg/kg, po administered as single dose. The following applies: in vivo. The class given is ADME, organism-based.
The nature of series [8]: Tmax in C57/BL6 mouse heart at 30 mg/kg, po administered as single dose. It is filed as ADME, organism-based.
Series [9] has as its target T1, Relaxin receptor 1 (Mus musculus) (UniProt Q6R6I7).
T1 sequence (whole entry): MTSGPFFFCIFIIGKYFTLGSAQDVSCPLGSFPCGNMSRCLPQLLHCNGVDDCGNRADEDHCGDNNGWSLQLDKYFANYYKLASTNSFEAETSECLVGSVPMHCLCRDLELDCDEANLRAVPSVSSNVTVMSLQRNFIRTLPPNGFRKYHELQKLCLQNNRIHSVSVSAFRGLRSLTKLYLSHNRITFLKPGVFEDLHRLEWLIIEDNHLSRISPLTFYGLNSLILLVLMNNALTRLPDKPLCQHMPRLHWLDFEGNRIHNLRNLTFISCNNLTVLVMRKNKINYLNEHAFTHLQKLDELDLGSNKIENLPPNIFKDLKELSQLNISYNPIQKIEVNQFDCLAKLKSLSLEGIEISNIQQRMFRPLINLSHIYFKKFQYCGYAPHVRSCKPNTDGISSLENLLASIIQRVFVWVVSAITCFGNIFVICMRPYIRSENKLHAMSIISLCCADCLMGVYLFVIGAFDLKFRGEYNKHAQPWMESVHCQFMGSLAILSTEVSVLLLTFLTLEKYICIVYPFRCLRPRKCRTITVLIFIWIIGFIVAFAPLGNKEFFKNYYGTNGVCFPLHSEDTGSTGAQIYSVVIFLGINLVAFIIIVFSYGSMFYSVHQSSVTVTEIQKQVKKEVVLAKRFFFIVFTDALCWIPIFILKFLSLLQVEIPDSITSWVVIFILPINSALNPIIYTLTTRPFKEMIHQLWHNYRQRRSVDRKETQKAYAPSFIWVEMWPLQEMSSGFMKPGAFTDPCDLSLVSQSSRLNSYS
Description: Agonist activity at mouse RXFP1 receptor expressed in HEK293 cells assessed as stimulation of cAMP production incubated for 30 mins by TR-FRET based HTRF assay. It is filed as functional, cell-based.

Series [10] deals with Relaxin receptor 2 (Mus musculus) (UniProt Q91ZZ5). Nature of the series: Agonist activity at mouse RXFP2 receptor expressed in HEK293 cells assessed as stimulation of cAMP production incubated for 30 mins by TR-FRET based HTRF assay. The class given is functional, cell-based. (In general: cAMP levels reflect the balance of adenylyl cyclase and phosphodiesterase activity.)
Sequence of Relaxin receptor 2 (Mus musculus) (Q91ZZ5 whole entry): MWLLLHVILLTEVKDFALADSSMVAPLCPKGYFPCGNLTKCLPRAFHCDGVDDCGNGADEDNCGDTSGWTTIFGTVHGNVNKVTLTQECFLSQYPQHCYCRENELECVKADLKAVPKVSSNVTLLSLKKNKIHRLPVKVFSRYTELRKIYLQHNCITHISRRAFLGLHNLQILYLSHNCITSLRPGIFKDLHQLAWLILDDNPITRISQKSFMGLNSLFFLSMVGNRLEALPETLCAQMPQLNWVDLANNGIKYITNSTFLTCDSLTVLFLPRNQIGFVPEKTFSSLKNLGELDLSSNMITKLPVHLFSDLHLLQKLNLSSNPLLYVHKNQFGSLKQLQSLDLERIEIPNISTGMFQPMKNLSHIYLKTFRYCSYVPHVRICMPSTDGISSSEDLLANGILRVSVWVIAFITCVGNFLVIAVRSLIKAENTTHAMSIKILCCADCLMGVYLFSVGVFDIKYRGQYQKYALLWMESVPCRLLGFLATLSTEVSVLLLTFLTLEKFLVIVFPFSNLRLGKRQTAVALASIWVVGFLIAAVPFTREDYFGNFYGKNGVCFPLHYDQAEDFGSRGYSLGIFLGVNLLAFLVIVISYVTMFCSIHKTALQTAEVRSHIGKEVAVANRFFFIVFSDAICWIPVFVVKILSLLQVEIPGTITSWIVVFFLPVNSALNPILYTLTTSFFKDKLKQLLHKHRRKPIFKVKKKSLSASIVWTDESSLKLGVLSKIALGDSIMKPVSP

Series [11] deals with T1, Relaxin receptor 1 (Mus musculus). Description: Agonist activity at mouse RXFP1 receptor M10 Ile646Val and Leu647Val mutant expressed in HEK293 cells assessed as stimulation of cAMP production incubated for 30 mins by TR-FRET based HTRF assay. The class given is functional, cell-based.
For series [12] the target is unchanged. Description: Agonist activity at mouse RXFP1 receptor M11 Asp659Gly and Ser660Thr mutant expressed in HEK293 cells assessed as stimulation of cAMP production at 66 uM incubated for 30 mins by TR-FRET based HTRF assay relative to relaxin. The class given is functional, cell-based. Also noted: scale not given: the % may be the effect or the level left.
Series [13] deals with T2, Relaxin receptor 1 (Macaca mulatta) (UniProt I2CTQ4).
T2 sequence (whole entry): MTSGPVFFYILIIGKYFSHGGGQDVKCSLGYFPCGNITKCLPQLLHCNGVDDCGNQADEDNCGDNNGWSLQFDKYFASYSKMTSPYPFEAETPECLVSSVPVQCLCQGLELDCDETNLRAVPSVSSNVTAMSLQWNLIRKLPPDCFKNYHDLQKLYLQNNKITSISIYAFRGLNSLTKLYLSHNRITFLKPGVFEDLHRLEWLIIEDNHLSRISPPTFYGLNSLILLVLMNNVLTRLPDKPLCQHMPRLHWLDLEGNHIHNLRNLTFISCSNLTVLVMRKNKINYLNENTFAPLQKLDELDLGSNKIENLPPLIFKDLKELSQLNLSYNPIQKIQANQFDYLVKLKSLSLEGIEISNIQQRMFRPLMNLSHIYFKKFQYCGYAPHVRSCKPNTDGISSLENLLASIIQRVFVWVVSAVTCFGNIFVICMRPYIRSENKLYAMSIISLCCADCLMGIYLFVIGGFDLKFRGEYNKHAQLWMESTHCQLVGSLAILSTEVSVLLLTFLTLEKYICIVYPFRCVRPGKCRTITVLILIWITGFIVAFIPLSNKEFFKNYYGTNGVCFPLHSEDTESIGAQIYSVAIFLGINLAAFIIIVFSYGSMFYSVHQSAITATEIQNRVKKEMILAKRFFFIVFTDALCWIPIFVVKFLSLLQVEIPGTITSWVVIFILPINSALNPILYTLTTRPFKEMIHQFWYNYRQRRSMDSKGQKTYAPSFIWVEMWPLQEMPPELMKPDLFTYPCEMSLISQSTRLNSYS
Nature of the series: Agonist activity at monkey RXFP1 receptor assessed as stimulation of cAMP production incubated for 30 mins by TR-FRET based HTRF assay. It is filed as functional.

The target of series [14] is T3, Uncharacterized protein (Sus scrofa) (UniProt F1RW91).
T3 sequence (whole entry): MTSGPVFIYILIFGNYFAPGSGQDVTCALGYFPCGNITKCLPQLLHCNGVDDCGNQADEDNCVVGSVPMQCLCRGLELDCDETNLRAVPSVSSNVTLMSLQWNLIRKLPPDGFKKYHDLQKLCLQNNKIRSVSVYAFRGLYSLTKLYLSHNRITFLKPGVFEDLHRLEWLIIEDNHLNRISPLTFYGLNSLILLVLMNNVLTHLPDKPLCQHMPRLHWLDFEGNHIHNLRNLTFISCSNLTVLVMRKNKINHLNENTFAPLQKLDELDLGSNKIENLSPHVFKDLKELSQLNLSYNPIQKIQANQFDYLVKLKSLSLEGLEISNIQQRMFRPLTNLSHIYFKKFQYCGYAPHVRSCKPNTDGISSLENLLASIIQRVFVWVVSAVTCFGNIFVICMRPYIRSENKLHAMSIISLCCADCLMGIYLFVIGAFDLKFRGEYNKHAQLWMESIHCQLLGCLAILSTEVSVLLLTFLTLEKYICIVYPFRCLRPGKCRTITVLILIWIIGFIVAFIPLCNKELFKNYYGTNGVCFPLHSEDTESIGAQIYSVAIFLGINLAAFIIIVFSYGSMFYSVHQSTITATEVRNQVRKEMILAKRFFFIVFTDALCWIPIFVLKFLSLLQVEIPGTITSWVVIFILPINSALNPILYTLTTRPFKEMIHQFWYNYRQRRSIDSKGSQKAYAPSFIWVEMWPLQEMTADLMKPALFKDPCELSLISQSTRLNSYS
Description: Agonist activity at pig RXFP1 receptor assessed as stimulation of cAMP production incubated for 30 mins by TR-FRET based HTRF assay. It is filed as functional.

The source made the active and inactive calls. The calls are words filed in the database; no cut-off is given here.

The Tmax is the time at which the peak concentration occurs. For orientation: Cmax means the maximum level reached in the sampled fluid or tissue.

Regarding `CC(C)Oc1ccccc1C(=O)Nc1ccccc1C(=O)Nc1cccc(S(=O)(=O)C(F)(F)F)c1`, the AUMClast was found to be 3110 hr.hr.ng/ml in the series with Plasma [1], 2990 hr.hr.ng/ml with Plasma [3], 28300 hr.hr.ng/ml with Heart [6] and 5780 hr.hr.ng/ml with Heart [7]. The compound further gave a C0 in series [2] of 499 ng/mL. Further, the Tmax in [4] was found to be 0.5 h; in [8], 1.5 h. The compound further registered a Cmax in [5] of 306 ng/mL. In addition, the outcome in series [9], in [10] and in series [11] was inactive. Moreover, in series [12], the Activity came to 44.4%. For the same compound, the outcome in [13] and in series [14] was Active.
